# Assay results reported in paper PMC8246065 (The EMBO Journal, 2021).
# Tests used:
# Assay type in all cases: cell-based, human
# [1] = tested on: HEK293T NOD1/2 KO cells transfected with NOD1 or NOD2 mutants; assay: IL8 ELISA of HEK293T cells transfected with NOD1/NOD2 mutants
# Description: To differentiate THP‐1 into macrophage‐like cells, THP‐1 cells were stimulated with 50 ng/ml phorbol 12‐myristate 13‐acetate (Sigma‐Aldrich, P8139) for 24 h and then incubated with fresh medium for another 48 h. […] To induce NOD1 or NOD2 expression, HeLa NOD1 or NOD2 cells were treated with 0.5 µg/ml or 0.25 µg/ml doxycycline for at least 16 h, respectively. All cells have been checked for mycoplasma contamination regularly. Bone marrow‐derived macrophages (BMDMs) were obtained from tibial and femural bones and generated with DMEM containing 20% L929 cell supernatant, 10% FBS, 5% heat‐inactivated horse serum, 1 mM sodium pyruvate, and 2 mM L‐glutamine. For BMDM stimulation experiments, BMDMs were treated with IFN‐γ (20 ng/ml) overnight before stimulation.
# The mutagenesis was performed with Q5® site‐directed mutagenesis kit (E0554, NEB) according to the manufacturer's instructions. The primers used in this study were as follows: NOD1 E157A F: 5′‐[…]gcg[…]‐3′, NOD1 E157A R: 5′‐[…]‐3′, NOD1 D161A F: 5′‐[…]gcg[…]‐3′, NOD1 D161A R: 5′‐[…]‐3′, NOD1 D203A F: 5′‐[…]gcg[…]‐3′, D203A R: 5′‐[…]‐3′, L218A F: 5′‐[…]gcg[…]‐3′, L218A R: 5′‐[…]‐3′, R237A F: 5′‐[…]gcg[…]‐3′, R237A R: 5′‐[…]‐3′, H257A F: 5′‐[…]gcg[…]‐3′, H257A R: 5′‐[…]‐3′, E267A F: 5′‐[…]gcg[…]‐3′, E267A R: 5′‐[…]‐3′, H290A F: 5′‐[…]gcg[…]‐3′, H290A R: 5′‐[…]‐3′, E306A F: 5′‐[…]gcg[…]‐3′, E306A R: 5′‐[…]‐3′, K324A F: 5′‐[…]gcg[…]‐3′, K324A R: 5′‐[…]‐3′, K328A F: 5′‐[…]gcg[…]‐3′, K328A R: 5′‐[…]‐3′, R340A F: 5′‐[…]gcg[…]‐3′, R340A R: 5′‐[…]‐3′, R344A F: 5′‐[…]gcg[…]‐3′, R344A R: 5′‐[…]‐3′, R350A F: 5′‐[…]gcg[…]‐3′, R350A R: 5′‐[…]‐3′, D372A F: 5′‐[…]gcg[…]‐3′, D372A R: 5′‐[…]‐3′, R373A F: 5′‐[…]gcg[…]‐3′, R373A R: 5′‐[…]‐3′, R399A F: 5′‐[…]gcg[…]‐3′, R399A R: 5′‐[…]‐3′, D423A F: 5′‐[…]gcg[…]‐3′, D423A R: 5′‐[…]‐3′, R435A F: 5′‐5′‐[…]gcg[…]‐3′, R435A R: 5′‐[…]‐3′, Q484A F: 5′‐[…]gcg[…]‐3′, Q484A R: 5′‐[…]‐3′, L495A F: 5′‐[…]gcg[…]‐3′, L495A R: 5′‐[…]‐3′, E514A F: 5′‐[…]gcg[…]‐3′, E514A R: 5′‐[…]‐3′, H517A F: 5′‐[…]gcg[…]‐3′, H517A R: 5′‐[…]‐3′, L540A F: 5′‐[…]gcg[…]‐3′, L540A R: 5′‐[…]‐3′, F544A F: 5′‐[…]gcg[…]‐3′, and F544A R: 5′‐[…]‐3′.
# [2] = tested on: HeLa NOD1 or NOD2 cells; assay: Western blot analysis in HeLa NOD1 or NOD2 cells
# Description: Cells were lysed in RIPA buffer supplemented with protease inhibitor cocktail and PhosSTOP (Roche, 4906837001) on ice for 10 min. After centrifugation at 16,000 × g for 10 min, supernatants were heated with SDS sample buffer at 95°C for 10 min. Proteins were separated on 4–15% SDS gels (Bio‐Rad, 4561086) and transferred onto nitrocellulose membranes. The membranes were incubated with primary antibodies at 4°C overnight and secondary antibodies at RT for 1 h, respectively. All antibodies were diluted in PBS supplemented with 0.1% Tween‐20 (Sigma‐Aldrich, P1379) and 5% BSA. Membranes were developed with ECL detection Kit (Thermo Fisher Scientific, 34094) and exposed with ChemiDoc (Bio‐Rad). The antibody against ACTB/β‐actin was used as loading control.
# [3] = tested on: NOD1/2; assay: dSTORM imaging of HeLa NOD1 or NOD2 cells; settings: S1P 20 µM, 2 h
# Description: For dSTORM, HeLa inducible NOD1‐GFP or NOD2‐GFP cells were grown on µ‐Slides with glass bottom (ibidi, Germany) and treated with doxycycline overnight to induce NOD1‐GFP or NOD2‐GFP expression. […] Then, cells were fixed with 4% (v:v) paraformaldehyde in PBS, pH 7.4 for 10 min at room temperature (RT). After washing twice with PBS, cells were incubated with 50 mM glycine in PBS, pH 7.4 for 10 min and permeabilized with 0.05% saponin (Sigma‐Aldrich, 47036), 1% BSA in PBS for 10 min. Rabbit anti‐GFP antibody (ChromoTek) and Alex Fluor 647‐conjugated goad anti‐rabbit antibody (Thermo Fisher Scientific) were diluted in PBS and incubated for 1 h at room temperature. The super resolution imaging was performed with Nanoimager S (Oxford Nanoimaging). For single particle tracking in live cells, Nanoimager S was pre‐warmed at 37°C. […] Medium was then replaced with fresh DMEM without phenol red. Live imaging was performed with Nanoimager S at acquisition speed of 100fps.
smiles,measurement,setting,value
"CCCCCCCCCCCCC/C=C/[C@@H](O)[C@@H](N)COP(=O)(O)O [S1P, sphingosine‐1‐phosphate]",IL8 production in cells expressing LRR-deficient NOD1/2 (NOD1/2∆LRR),"[1]; 20 µM with digitonin, 20 h",elevated
same,IL8 production in cells expressing NOD1/2 WT,"[1]; 20 µM with digitonin, 20 h",induced
same,IL8 production / activation in HEK293T cells expressing NOD2 1007fs,"[1]; 20 µM, 48 h, digitonin",increased
same,Activation (IL8) of NOD1 K328A or H517A,[1]; Fig EV5H,not
same,NOD1 or NOD2 degradation,"[2]; 20 µM with digitonin, Fig EV4G",did not induce NOD1 or NOD2 degradation
same,MAPK activation and NF-κB activation,[2]; cytosolic S1P 20 µM,triggered MAPK activation and NF‐κB activation
same,Oligomerization of NOD1/2,[3],oligomerization of NOD1/2 induced
